Measurements: article PMC7253177, “Gain of channel function and modified gating properties in TRPM3 mutants causing intellectual disability and epilepsy” (eLife, 2020)

Target: T1, WT human TRPM3 (Homo sapiens, UniProt Q9HCF6)
T1 construct: expressed in transfected cells; host or cells: HEK293T
T1 sequence (Q9HCF6 1-1325 isoform Q9HCF6-10): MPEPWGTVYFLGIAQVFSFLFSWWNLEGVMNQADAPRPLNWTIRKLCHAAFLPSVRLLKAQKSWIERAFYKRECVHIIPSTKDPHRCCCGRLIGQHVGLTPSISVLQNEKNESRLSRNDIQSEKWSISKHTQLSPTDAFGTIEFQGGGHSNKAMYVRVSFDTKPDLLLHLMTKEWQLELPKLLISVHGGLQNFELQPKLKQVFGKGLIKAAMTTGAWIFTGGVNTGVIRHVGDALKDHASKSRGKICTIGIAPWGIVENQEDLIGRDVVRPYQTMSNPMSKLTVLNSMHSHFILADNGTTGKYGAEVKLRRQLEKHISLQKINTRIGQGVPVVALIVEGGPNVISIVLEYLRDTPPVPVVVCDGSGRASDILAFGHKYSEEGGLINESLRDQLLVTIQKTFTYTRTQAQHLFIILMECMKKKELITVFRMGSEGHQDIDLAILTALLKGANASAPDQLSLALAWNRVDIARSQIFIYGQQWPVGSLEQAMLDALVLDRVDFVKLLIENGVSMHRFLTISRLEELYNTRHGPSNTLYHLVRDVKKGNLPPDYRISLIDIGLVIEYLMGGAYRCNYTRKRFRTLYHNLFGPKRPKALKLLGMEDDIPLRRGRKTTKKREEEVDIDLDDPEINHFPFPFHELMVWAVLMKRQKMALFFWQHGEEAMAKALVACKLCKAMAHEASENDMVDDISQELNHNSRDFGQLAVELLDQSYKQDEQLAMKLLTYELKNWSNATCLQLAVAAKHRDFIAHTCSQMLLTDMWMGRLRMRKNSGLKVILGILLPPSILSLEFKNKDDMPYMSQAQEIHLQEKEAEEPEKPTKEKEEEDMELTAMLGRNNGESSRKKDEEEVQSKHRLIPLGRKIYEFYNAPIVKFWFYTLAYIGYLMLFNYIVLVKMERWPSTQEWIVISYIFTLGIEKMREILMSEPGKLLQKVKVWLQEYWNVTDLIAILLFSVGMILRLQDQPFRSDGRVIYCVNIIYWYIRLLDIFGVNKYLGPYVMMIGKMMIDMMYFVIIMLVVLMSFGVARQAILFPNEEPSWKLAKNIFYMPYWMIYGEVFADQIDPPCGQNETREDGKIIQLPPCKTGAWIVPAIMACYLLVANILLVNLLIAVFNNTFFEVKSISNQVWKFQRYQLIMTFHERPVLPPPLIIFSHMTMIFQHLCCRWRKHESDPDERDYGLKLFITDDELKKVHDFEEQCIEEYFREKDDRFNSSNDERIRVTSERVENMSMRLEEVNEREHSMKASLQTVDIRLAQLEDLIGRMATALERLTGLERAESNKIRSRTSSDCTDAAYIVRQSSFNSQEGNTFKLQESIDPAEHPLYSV
Assay: Whole-cell patch clamp, HEK293T cells expressing WT hTRPM3
Type: cell-based
Conditions: WT
Description: HEK293T cells ([Graham et al., 1977]) were cultured as described previously ([Vriens et al., 2007]) and used up in passage number 14. HEK293T cells were tested for the lack of mycoplasma and transiently transfected with 2 µg of DNA using TransIT transfection reagent (Mirus) 36–48 hr before the measurements. In case of co-cultures a ratio of 1:1 between hTRPM3-YFP WT and mutants-YFP DNA was used.
Standard whole-cell patch-clamp recordings were performed with an EPC-10 amplifier and the PatchMasterPro Software (HEKA Elektronik, Lambrecht, Germany). Current measurements were performed at a sampling rate of 20 kHz and currents were digitally filtered at 2.9 kHz. In all measurements, 70% of the series resistance was compensated. The standard internal solution contained (in mM): 100 CsAsp, 45 CsCl, 10 EGTA, 10 HEPES, 1 MgCl2 (pH 7.2 with CsOH) or 140 potassium gluconate, 5 EGTA, 1 MgCl2, 10 HEPES and 2 NaATP (pH 7.3 with CsOH) for the measurements of Gβγ mediated inhibition and the standard extracellular solution contained (in mM): 150 NaCl, 1 MgCl2, 10 HEPES (pH 7.4 with NaOH). The standard patch pipette resistance was between 2 MΩ and 4 MΩ when filled with pipette solution. In experiments allowing Ca^2+-dependent desensitization of TRPM3, Mg^2+ was replaced by Ca^2+ in the extracellular solution, and Cs^+ was replaced by Na^+ in the pipette solution. […] The chemical ligands were dissolved in bath solution from a stock diluted in DMSO.

CCC1(c2ccccc2)C(=O)NCNC1=O [primidone]
Inhibition of PS-activated inward and outward currents (primidone 25 µM, PS 40 µM, ±80 mV, cells co-expressing µ-opioid receptor): full inhibition

pregnenolone sulfate [PS]
Activation of whole-cell currents (PS 40 µM): reversibly activated outwardly rectifying whole-cell currents

Clc1ccccc1C(c1ccccc1)(c1ccccc1)n1ccnc1 [Clt, clotrimazole]
Activation of whole-cell currents in the absence of PS (Clt 10 µM): did not activate currents by itself
Effect on the response to PS (whole-cell currents) (Clt 10 µM, PS 40 µM): potentiated responses to PS
